Measured values reported in ChEMBL document CHEMBL4480390, “Cink4T, a quinazolinone-based dual inhibitor of Cdk4 and tubulin polymerization, identified via ligand-based virtual screening, for efficient anticancer therapy” (Eur J Med Chem, 2019).

How the values were obtained:
[1] = target: T1, Cytochrome P450 1A2 (Homo sapiens, UniProt P05177); experiment: Inhibition of recombinant human CYP1A2 expressed in baker's yeast-derived microsomes using 3-cyano-7-ethoxycoumarin as substrate by fluorescence assay; format: ADME
T1 sequence (P05177 whole entry): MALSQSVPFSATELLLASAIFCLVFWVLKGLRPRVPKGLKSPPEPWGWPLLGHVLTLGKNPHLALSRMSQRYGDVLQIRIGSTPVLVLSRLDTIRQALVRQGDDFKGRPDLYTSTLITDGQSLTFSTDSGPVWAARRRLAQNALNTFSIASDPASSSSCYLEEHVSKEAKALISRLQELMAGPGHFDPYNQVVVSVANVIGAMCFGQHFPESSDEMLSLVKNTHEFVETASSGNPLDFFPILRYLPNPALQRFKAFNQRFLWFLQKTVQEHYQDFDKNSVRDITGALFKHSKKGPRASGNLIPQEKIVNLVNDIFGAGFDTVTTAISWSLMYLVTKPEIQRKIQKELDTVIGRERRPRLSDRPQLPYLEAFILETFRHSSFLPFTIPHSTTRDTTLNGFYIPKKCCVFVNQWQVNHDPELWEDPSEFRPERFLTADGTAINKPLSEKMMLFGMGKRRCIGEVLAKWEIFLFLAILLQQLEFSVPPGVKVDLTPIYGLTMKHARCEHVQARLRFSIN

[2] = system: T47D; experiment: Cell cycle arrest in human T47D cells assessed as increase in accumulation at S phase at 1.5 uM treated 18 hrs post serum-starvation measured after 18 hrs in presence of fresh medium containing FBS by propidium iodide staining based flow cytometry relative to control; format: functional
[3] = system: A549; experiment: Cell cycle arrest in human A549 cells assessed as accumulation at S phase at 1.6 uM treated 32 hrs post mimosine addition measured after 18 hrs in presence of fresh medium by propidium iodide staining based flow cytometry (reference value: 23%); format: functional
[4] = system: A549; experiment: Cell cycle arrest in human A549 cells assessed as ratio of G1 to S phase at 0.8 uM measured after 18 hrs by propidium iodide staining based flow cytometry (reference value: 2.7); format: functional
[5] = system: A549; experiment: Cell cycle arrest in human A549 cells assessed as ratio of G1 to S phase at 0.8 uM treated 32 hrs post mimosine addition measured after 18 hrs in presence of fresh medium by propidium iodide staining based flow cytometry (reference value: 2.5); format: functional
[6] = system: A549; experiment: Cell cycle arrest in human A549 cells assessed as accumulation at G0/G1 phase at 0.8 uM treated 32 hrs post mimosine addition measured after 18 hrs in presence of fresh medium by propidium iodide staining based flow cytometry (reference value: 58%); format: functional
[7] = system: A549; experiment: Cell cycle arrest in human A549 cells assessed as accumulation at S phase at 0.8 uM treated 32 hrs post mimosine addition measured after 18 hrs in presence of fresh medium by propidium iodide staining based flow cytometry (reference value: 23%); format: functional
[8] = system: A549; experiment: Cell cycle arrest in human A549 cells assessed as ratio of G1 to S phase at 1.6 uM measured after 18 hrs by propidium iodide staining based flow cytometry (reference value: 2.7); format: functional
[9] = target: T2, Cytochrome P450 1B1 (Homo sapiens, UniProt Q16678); experiment: Inhibition of recombinant human CYP1B1 expressed in baker's yeast-derived microsomes using 7-ethoxyresorufin as substrate by fluorescence assay
T2 sequence (Q16678 whole entry): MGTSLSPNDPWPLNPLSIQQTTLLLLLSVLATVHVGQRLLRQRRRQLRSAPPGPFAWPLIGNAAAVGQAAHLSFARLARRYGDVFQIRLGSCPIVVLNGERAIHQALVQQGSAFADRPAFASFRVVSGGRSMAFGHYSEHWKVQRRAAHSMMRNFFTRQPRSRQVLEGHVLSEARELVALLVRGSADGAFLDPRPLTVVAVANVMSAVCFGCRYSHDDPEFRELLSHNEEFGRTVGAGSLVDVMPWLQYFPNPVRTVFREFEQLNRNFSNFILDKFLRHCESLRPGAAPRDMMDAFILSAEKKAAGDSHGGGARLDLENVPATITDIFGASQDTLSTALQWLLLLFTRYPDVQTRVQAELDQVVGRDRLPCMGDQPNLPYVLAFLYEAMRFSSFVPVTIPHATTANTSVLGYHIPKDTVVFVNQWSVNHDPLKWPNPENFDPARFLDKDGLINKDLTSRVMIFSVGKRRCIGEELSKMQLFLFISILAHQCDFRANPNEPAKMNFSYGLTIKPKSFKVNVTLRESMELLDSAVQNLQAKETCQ

O=C(COc1ccc(-c2nc3ccccc3c(=O)[nH]2)cc1)Nc1cccc(Cl)c1
IC50 [1]: > 5 µM | Activity [2]: 5.3% | Activity [3]: 18% | Ratio [4]: 6.5 | Ratio [5]: 1.07 | Activity [6]: 36% | Activity [7]: 24% | Ratio [8]: 0.75 | IC50 [9]: > 5 µM
